Experiments:
calf thymus DNA = test: Radiation-induced calf thymus DNA fragmentation assay; type: biochemical; details: 50 Gy
Description: Plasmid DNA (pBR322) or calf thymus DNA samples with or without varying concentrations of SDG (R,R), SDG (S,S) and SDG (commercial) were exposed to γ-radiation with a Mark 1 cesium (Cs-137) irradiator (J. L. Shepherd, San Fernando, Calif.) at a dose rate of 1.7 Gy/min in phosphate buffered saline, pH 7.4 (PBS).
The effect of test compounds on radiation-induced strand breaks in DNA was determined using calf thymus DNA (Sigma, St. Louis, Mo.). DNA (500 ng) in PBS (pH 7.4) was mixed with varying concentrations (25-250 μM) of SDG (R,R), SDG (S,S) and SDG (commercial) and irradiated at 50 Gy for 30 min. A second series of experiments were performed at varying concentrations ranging from 0.5-10 μM. Samples were mixed with loading dye and subjected to agarose (1%) gel electrophoresis in TAE buffer (pH, 8.3) at 100 V. The gel was stained with ethidium bromide (0.5 μg/ml) for 40 min, washed for 20 min and then visualized on a UV trans-illuminator (Bio-Rad, Hercules, Calif.). The captured gel images were scanned and the density of the calf thymus DNA fragments was determined by Gel-Pro image analyzer program (Media Cybernetics, Silver Spring, Md.). The density of the low mol. wt (<6,000 bps) and the high mol. wt (>6,000 bps) fragments of calf thymus DNA was expressed as % of the total density (low mol wt.+high mol. wt.).

[1] = system: murine primary lung epithelial cells; test: γ-H2AX foci immunostaining, epithelial cells; type: cell-based, mouse; details: SDG 50 μM 6 h prior IR; 2 Gy; irradiated control 46.7% at 30 min
Description: (§1) Fibroblasts and endothelial cells were isolated from C57/bl6 mouse. For fibroblast isolation, mouse lungs were harvested, minced, and incubated with dispase (2 mg/ml) for 45 minutes. Pieces were plated out and fibroblasts were cultured as described previously and used between passages 3 and 10. Pulmonary microvascular endothelial cells (PMVEC) were isolated from murine lungs as described previously. Briefly, freshly harvested mouse lungs were treated with collagenase followed by isolation of cells by adherence to magnetic beads coated with mAb to platelet endothelial cell adhesion molecule (PECAM). Epithelial cells (C10) cells were originally derived from a normal BALB/c mouse lung explant and are non-tumorigenic, contact-inhibited, and have alveolar type 2 cell features at early passage.
(§2) For immunostaining of γ-H2AX, cells were plated on glass coverslips (5,000 cells/coverslip), pre-treated (6 h) with 50 μM SDG and irradiated (2 Gy). At desired time interval, cells were fixed (4% para-formaldehyde), washed and blocked with PBST (PBS+0.1% TritonX-100 containing 5% goat serum, 1% BSA). Cells were incubated with γ-H2AX primary antibody (1:200) overnight at 4° C. followed by washing with PBST (3×5 min) and incubation with secondary antibody (Alexa Fluor® 488, Invitrogen, Calif., USA) for 1 hr at RT. Nuclei were counterstained with DAPI and visualized under fluorescence microscope.

[2] = system: murine primary lung endothelial cells; test: γ-H2AX foci immunostaining, endothelial cells; type: cell-based, mouse; details: SDG 50 μM 6 h prior IR; 2 Gy; irradiated control 33.6% at 30 min
Description: as §1, §2

[3] = system: mouse lung epithelial cells; test: Apoptosis detection by western blotting (Bax, Bcl-2, cleaved caspase-3, cleaved PARP); type: cell-based; details: SDG pre-treated vs irradiated cells
Description: Apoptosis was determined in mouse lung epithelial cells by levels of Bax (an apoptosis promoter), Bcl-2 (an apoptosis inhibitor), cleaved caspase-3, and cleaved poly (adenosine diphosphate-ribose) polymerase (PARP) seen using immunoblotting. Briefly, cells were lysed in PBS containing protease inhibitors. Immunoblot analysis of cell lysates was then performed using 10 well SDS 12% NuPAGE gel (Invitrogen, Carlsbad Calif.). Electrophoresis was performed at 200V for 1 hour. Transfer to PolyScreen PV transfer membrane (PerkinElmer Life Sciences, Boston, Mass.) was performed for 1 hour at 25 volts. Membrane was blocked overnight in 5% non-fat dry milk in phosphate buffered saline. The non-fat dry milk was then discarded and the membrane was incubated with primary antibody. Protein levels of Bax, Bcl-2, cleaved caspase-3, and cleaved PARP were detected using manufacturer recommended dilutions (Cell Signaling Technology, Danvers, Mass.) using rabbit anti-mouse monoclonal antibody against BAX and Bcl-2, and rabbit anti-mouse cleaved caspase-3 (Asp175), monoclonal antibody and a rabbit polyclonal anti-cleaved PARP (214/215) cleavage site specific antibody. The membrane was washed five times and then incubated in secondary antibody conjugated to horseradish peroxidase for 45 minutes at room temperature. Membranes were developed using Western Lighting Chemiluminescence Reagent Plus (PerkinElmer Life Sciences, Boston, Mass.) and quantified by densitometry scanning of specific bands (20 kDa for Bax, 26 kDa for Bcl-2, 17/19 kDa for cleaved caspase-3, and 89 kDa for cleaved PARP) that were adjusted for loading using β-actin expression level detected by specific secondary antibody (Sigma, St. Louis, Mo.).

[4] = Scavenging of γ-radiation-induced hypochlorite (APF/HPF fluorescence in PBS)
Description: The fluorescence of ROS probes APF and HPF in PBS was measured at excitation/emission at 490 nm/515 nm in presence of hypochlorite or after γ-radiation exposure. Data is expressed as relative fluorescence units (RFU).

[5] = system: human epithelial cells (A549); test: BaP-induced oxidative DNA damage (8-oxo-dGuo, mass spectrometry); type: cell-based; details: SDG 10 μM; 25 μM BaP; 3 and 6 hours post carcinogen exposure
human epithelial cells = test: BaP-induced genotoxic stress (p53 protein levels); type: cell-based; details: SDG 5, 10, 25 and 50 μM
From the text: Similarly, SDG prevents genotoxic stress in human epithelial cells exposed to BaP. Exposure of cells to a potent carcinogen such as BaP, induces genotoxic stress as indicated by increased levels of p53 protein (FIG. 25). […] SDG also prevents oxidative DNA damages in human epithelial cells exposed to BaP. Exposure of cells to a potent carcinogen such as BaP, induces oxidative DNA damage as indicated by increased levels of gamma-H2AX, a marker for double-stranded DNA breaks (FIG. 26). […] Furthermore, SDG prevents DNA adduct formation in human epithelial cells exposed to BaP. Exposure of cells to a potent carcinogen such as BaP, induces the formation of DNA adducts (FIG. 27). DNA adducts are pieces of DNA covalently linked to a carcinogen and is directly linked to the development of malignancy. The DNA adduct levels is decreased by the presence of SDG or its metabolites ED and EL given alone or in combination.

[6] = typical range, earlier work; read-out: EC50 values for free radical scavenging and antioxidant effects; cited from earlier work

In the case of COc1cc(C[C@@H](CO[C@@H]2O[C@H](CO)[C@@H](O)[C@H](O)[C@H]2O)[C@H](CO[C@@H]2O[C@H](CO)[C@@H](O)[C@H](O)[C@H]2O)Cc2ccc(O)c(OC)c2)ccc1O [SDG, secoisolariciresinol diglucoside], the “Concentration at which maximum radioprotection of genomic DNA is achieved” value (calf thymus DNA) is reported as “approximately 5.0 μM”, the “Radioprotective properties of SDG and metabolites compared” value (calf thymus DNA; 10 μM of each agent) is reported as “equipotent” and the γ-H2AX positive cells [1] is reported as 22.7%±2.17. For the same compound, the γ-H2AX positive cells [2] was 21.92%±2.88, the Bax protein levels [3] was “trended towards decreased levels” and the Bcl-2 protein levels [3] was “trended towards decreased levels”. For the same compound, the “Cleaved PARP levels” value ([3]; 6, 24, 48 hours post-IR) was “trended towards decreased levels”, the “Cleaved caspase-3 levels” value ([3]; 6, 24, 48 hours post-IR) was “trended towards decreased levels” and the “Ratio APF/HPF” value [4] was “decreased”. For the same compound, the “ClO^− generation from radiation exposure” value ([4]; 25 and 50 Gy) was “blunted”, the “γ-radiation-induced APF and HPF fluorescence” value ([4]; 50 Gy) was “dose-dependently decreased” and the “Initial slope for decrease of APF fluorescence” value ([4]; 50 Gy, SDG dose response) was 1,816.30. The “Initial slope for decrease of HPF fluorescence” value ([4]; 50 Gy, SDG dose response) was 695.75, the “Oxidative DNA damage (8-oxo-dGuo)” value [5] was “decreased DNA damage” and the “p53 protein levels (genotoxic stress)” value (human epithelial cells) was “mitigated dose-dependently”. For the same compound, the EC50 [6] was 130 to 200 µM.

Reference: patent US10966995B2, “Use of secoisolariciresinol diglucosides (SDGS) and related compounds for protection against radiation and chemical damage” (THE TRUSTEES OF THE UNIVERSITY OF PENNSYLVANIA, priority 2014, dated 2021)
